Experimental data taken from patent US20240400553A1, “AMINE BASED MATRIPTASE 2 INHIBITORS AND USES THEREOF” (Disc Medicine, Inc., priority 2023, published 2024).

The molecules below were run against T1, Human Recombinant Matriptase 2 (Homo sapiens, UniProt Q8IU80) (assay: Matriptase 2 inhibition, fluorescence based assay (Method I)). Settings: Table A; Ki of Matriptase-2; read-out: Mat-2 Ki.
T1 construct: made in house
T1 sequence (Q8IU80 1-811): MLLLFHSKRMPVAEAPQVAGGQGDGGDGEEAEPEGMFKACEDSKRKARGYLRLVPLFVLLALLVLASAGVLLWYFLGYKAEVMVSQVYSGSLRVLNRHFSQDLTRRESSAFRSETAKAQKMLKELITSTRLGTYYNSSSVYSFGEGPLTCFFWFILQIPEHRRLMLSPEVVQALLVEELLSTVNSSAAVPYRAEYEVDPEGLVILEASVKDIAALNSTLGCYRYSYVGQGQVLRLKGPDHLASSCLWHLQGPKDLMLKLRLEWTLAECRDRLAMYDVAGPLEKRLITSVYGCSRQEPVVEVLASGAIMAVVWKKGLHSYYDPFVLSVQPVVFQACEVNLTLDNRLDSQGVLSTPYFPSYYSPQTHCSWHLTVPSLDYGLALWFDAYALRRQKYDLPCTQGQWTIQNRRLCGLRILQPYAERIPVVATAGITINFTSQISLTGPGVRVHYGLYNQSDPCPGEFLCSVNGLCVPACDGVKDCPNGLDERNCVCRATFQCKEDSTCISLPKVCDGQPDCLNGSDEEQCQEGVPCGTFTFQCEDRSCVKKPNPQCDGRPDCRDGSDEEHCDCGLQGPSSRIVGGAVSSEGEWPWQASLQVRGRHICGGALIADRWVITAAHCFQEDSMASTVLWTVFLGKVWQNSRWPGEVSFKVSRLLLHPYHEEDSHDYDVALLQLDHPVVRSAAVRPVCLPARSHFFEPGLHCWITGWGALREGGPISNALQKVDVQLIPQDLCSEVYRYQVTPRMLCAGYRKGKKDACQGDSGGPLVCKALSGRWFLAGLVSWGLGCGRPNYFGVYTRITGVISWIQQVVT
Assay type: biochemical
Procedure, shortened: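 In-house recombinant enzyme (3.5 nM), preincubated 30 min with compound, then Boc-Gln-Ala-Arg-AMC substrate (62 μM) in 50 mM Tris pH 7.5, 150 mM NaCl, 0.01% gelatin, 1% DMSO, 25 °C. Fluorescence (Ex 360/Em 480 nm) read 60 min after substrate; IC50 from variable-slope sigmoidal fit of % inhibition.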

Row | Compound | Ki [nM]
1 | CN1CCC(COC(=O)c2cc3ccc(CN)nc3n2Cc2cc(NS(=O)(=O)Cc3cccs3)cc3ccccc23)CC1 [Compound 146, (1-methylpiperidin-4-yl)-methyl 6-(aminometh-yl)-1-({3-[(thiophen-2-yl)methanesulfonamido]-naphthalen-1-yl}methyl)-1H-pyrrolo[2,3-b]pyr-idine-2-carboxylate] | ≤ 100
2 | CN1CCC(COC(=O)c2cc3ccc(CN)nc3n2Cc2cc(NS(=O)(=O)Cc3sccc3F)cc3ccccc23)CC1 [Compound 147, (1-methylpiperidin-4-yl)-methyl 6-(aminomethyl)-1-({3-[(3-fluorothiophen-2-yl)methanesulfon-amido]naphthalen-1-yl}-methyl)-1H-pyrrolo[2,3-b]pyridine-2-carboxylate] | ≤ 100
3 | CN(C)CCOC(=O)c1cc2ccc(CN)nc2n1Cc1cc(NS(=O)(=O)Cc2cccs2)cc2ccccc12 [Compound 148, 2-(dimethylamino)ethyl 6-(aminomethyl)-1-({3-[(thiophen-2-yl)methane-sulfonamido]naphthalen-1-yl}methyl)-1H-pyr-rolo[2,3-b]pyridine-2-carboxylate] | ≤ 100
4 | CN1CCC(COC(=O)c2cc3ccc(CN)nc3n2Cc2cc(NS(=O)(=O)Cc3ccc(F)s3)cc3ccccc23)CC1 [Compound 149, (1-methylpiperidin-4-yl)methyl 6-(amino-methyl)-1-({3-[(5-fluoro-thiophen-2-yl)methane-sulfonamido]naphthalen-1-yl}methyl)-1H-pyr-rolo[2,3-b]pyridine-2-carboxylate] | ≤ 100
5 | CN1CCC(CCOC(=O)c2cc3ccc(CN)nc3n2Cc2cc(NS(=O)(=O)Cc3cccs3)cc3ccccc23)CC1 [Compound 150, 2-(1-methylpiperidin-4-yl)ethyl 6-(aminometh-yl)-1-({3-[(thiophen-2-yl)methanesulfonamido]-naphthalen-1-yl}methyl)-1H-pyrrolo[2,3-b]pyr-idine-2-carboxylate] | ≤ 100
6 | NCc1ccc2cc(C(=O)OCCN3CCOCC3)n(Cc3cc(NS(=O)(=O)Cc4cccs4)cc4ccccc34)c2n1 [Compound 151, 2-(morpholin-4-yl)ethyl 6-(aminomethyl)-1-({3-[(thiophen-2-yl)methane-sulfonamido]naphthalen-1-yl}methyl)-1H-pyr-rolo[2,3-b]pyridine-2-carboxylate] | ≤ 100
7 | CNCCOC(=O)c1cc2ccc(CN)nc2n1Cc1cc(NS(=O)(=O)Cc2cccs2)cc2ccccc12 [Compound 152, 2-(methylamino)ethyl 6-(aminomethyl)-1-({3-[(thiophen-2-yl)methane-sulfonamido]naphthalen-1-yl}methyl)-1H-pyr-rolo[2,3-b]pyridine-2-carboxylate] | ≤ 100
8 | NCc1ccc2cc(C(=O)O)n(Cc3cc(NS(=O)(=O)Cc4cccs4)cc4ccccc34)c2n1 [Compound 153, 6-(aminomethyl)-1-({3-[(thiophen-2-yl)methane-sulfonamido]naphthalen-1-yl}methyl)-1H-pyr-rolo[2,3-b]pyridine-2-carboxylic acid] | ≤ 100
9 | CCOC(=O)c1cc2ccc(CN)nc2n1Cc1cc(NS(=O)(=O)Cc2cccs2)cc2ccccc12 [Compound 154, ethyl 6-(aminomethyl)-1-({3-[(thiophen-2-yl)-methanesulfonamido]-naphthalen-1-yl}methyl)-1H-pyrrolo[2,3-b]pyr-idine-2-carboxylate] | 100 to 500
10 | Cn1cncc1COC(=O)c1cc2ccc(CN)nc2n1Cc1cc(NS(=O)(=O)Cc2ccsc2)cc2ccccc12 [Compound 155, (1-methyl-1H-imidazol-5-yl)methyl 6-(amino-methyl)-1-({3-[(thiophen-3-yl)methanesulfon-amido]naphthalen-1-yl}-methyl)-1H-pyrrolo[2,3-b]pyridine-2-carboxylate] | ≤ 100
11 | NCc1ccc2cc(C(=O)OCCN3CCNCC3)n(Cc3cc(NS(=O)(=O)Cc4ccsc4)cc4ccccc34)c2n1 [Compound 156, 2-(piperazin-1-yl)ethyl 6-(aminomethyl)-1-({3-[(thiophen-3-yl)methane-sulfonamidoJnaphthalen-1-yl}methyl)-1H-pyr-rolo[2,3-b]pyridine-2-carboxylate] | ≤ 100
12 | Cn1ccnc1COC(=O)c1cc2ccc(CN)nc2n1Cc1cc(NS(=O)(=O)Cc2ccsc2)cc2ccccc12 [Compound 157, (1-methyl-1H-imidazol-2-yl)methyl 6-amino-methyl)-1-({3-[(thio-phen-3-yl)methanesul-fonamido]naphthalen-1-yl}methyl)-1H-pyrrolo-[2,3-b]pyridine-2-car-boxylate] | ≤ 100
13 | NCc1ccc2cc(C(=O)OC[C@H]3COCCN3)n(Cc3cc(NS(=O)(=O)Cc4ccsc4)cc4ccccc34)c2n1 [Compound 158, [(3R)-morpholin-3-yl]-methyl 6-(aminometh-yl)-1-({3-[(thiophen-3-yl)methanesulfonamido]-naphthalen-1-yl}meth-yl)-1H-pyrrolo[2,3-b]-pyridine-2-carboxylate] | ≤ 100
14 | CC(C)(C)n1cncc1COC(=O)c1cc2ccc(CN)nc2n1Cc1cc(NS(=O)(=O)Cc2ccsc2)cc2ccccc12 [Compound 159, (1-tert-butyl-1H-imid-azol-5-yl)methyl 6-(aminomethyl)-1-({3-[(thiophen-3-yl)methane-sulfonamido]naphthalen-1-yl}methyl)-1H-pyr-rolo[2,3-b]pyridine-2-carboxylate] | ≤ 100
15 | NCc1ccc2cc(C(=O)OCCCN3CCOCC3)n(Cc3cc(NS(=O)(=O)Cc4ccsc4)cc4ccccc34)c2n1 [Compound 160, 3-(morpholin-4-yl)prop-yl 6-(aminomethyl)-1-({3-[(thiophen-3-yl)meth-anesulfonamido]naph-thalen-1-yl}methyl)-1H-pyrrolo[2,3-b]pyridine-2-carboxylate] | ≤ 100
16 | CN1CCN(CCOC(=O)c2cc3ccc(CN)nc3n2Cc2cc(NS(=O)(=O)Cc3ccsc3)cc3ccccc23)CC1 [Compound 161, 2-(4-methylpiperazin-1-yl)ethyl 6-(aminometh-yl)-1-({3-[(thiophen-3-yl)methanesulfonamido]-naphthalen-1-yl}meth-yl)-1H-pyrrolo[2,3-b]-pyridine-2-carboxylate] | ≤ 100
17 | CN1CCC(CCNC(=O)c2cc3ccc(CN)nc3n2Cc2cc(NS(=O)(=O)Cc3ccsc3)cc3ccccc23)CC1 [Compound 162, 6-(aminomethyl)-N-[2-(1-methylpiperidin-4-yl)-ethyl]-1-({3-[(thiophen-3-yl)methanesulfon-amido]naphthalen-1-yl}-methyl)-1H-pyrrolo[2,3-b]pyridine-2-carboxamide] | ≤ 100
18 | Cc1cscc1CS(=O)(=O)Nc1cc(Cn2c(C(=O)OCC3CCN(C)CC3)cc3ccc(CN)nc32)c2ccccc2c1 [Compound 163, (1-methylpiperidin-4-yl)-methyl 6-(aminomethyl)-1-({3-[(4-methylthio-phen-3-yl)methanesul-fonamido]naphthalen-1-yl}methyl)-1H-pyrrolo-[2,3-b]pyridine-2-car-boxylate] | ≤ 100
19 | NCc1ccc2cc(C(=O)OCC3CCN(C=O)CC3)n(Cc3cc(NS(=O)(=O)Cc4ccsc4)cc4ccccc34)c2n1 [Compound 164, (1-formylpiperidin-4-yl)methyl 6-(aminometh-yl)-1-({3-[(thiophen-3-yl)methanesulfonamido]-naphthalen-1-yl}methyl)-1H-pyrrolo[2,3-b]pyr-idine-2-carboxylate] | ≤ 100
20 | Cn1ccnc1CNC(=O)c1cc2ccc(CN)nc2n1Cc1cc(NS(=O)(=O)Cc2ccsc2)cc2ccccc12 [Compound 165] | ≤ 100
21 | COCCN1CCC(COC(=O)c2cc3ccc(CN)nc3n2Cc2cc(NS(=O)(=O)Cc3ccsc3)cc3ccccc23)CC1 [Compound 167, [1-(2-methoxyethyl)-piperidin-4-yl]methyl 6-(aminomethyl)-1-({3-[(thiophen-3-yl)meth-anesulfonamido]naph-thalen-1-yl}methyl)-1H-pyrrolo[2,3-b]pyridine-2-carboxylate] | ≤ 100
22 | NCc1ccc2cc(C(=O)OCCN3CCOCC3)n(Cc3cc(NS(=O)(=O)Cc4ccsc4)cc4ccccc34)c2n1 [Compound 168, 2-(morpholin-4-yl)ethyl 6-(aminomethyl)-1-({3-[(thiophen-3-yl)methane-sulfonamido]naphthalen-1-yl}methyl)-1H-pyr-rolo[2,3-b]pyridine-2-carboxylate] | ≤ 100
23 | CN(C)CCOC(=O)c1cc2ccc(CN)nc2n1Cc1cc(NS(=O)(=O)Cc2ccsc2)cc2ccccc12 [Compound 169, 2-(dimethylamino)ethyl 6-(aminomethyl)-1-({3-[(thiophen-3-yl)methane-sulfonamido]naphthalen-1-yl}methyl)-1H-pyr-rolo[2,3-b]pyridine-2-carboxylate] | ≤ 100
